Test results reported in patent US6355624B1, “Measurement of plasma volume” (University Wales College of Medicine, priority 1997, dated 2002).
Several values for one entry are separate records, joined by “and”; a condition that tells them apart may be missing. Equal values may be shown once.

Assays:
[1] = Volume of distribution of FITC-Elohaes compared with Evans Blue labelled albumin in healthy and endotoxic newborn piglets; settings: approx 1.0 mg/kg, individual piglets and mean; for Vd: pig, in vivo, iv, 1 mg/kg
Description: Seventeen piglets were used in this study. The animals were randomised into two groups, a healthy (control) group and an Escherichia coli (endotoxic) group. The animals of the endotoxic group received a bolus injection of E. coli (1.667 μg/kg), followed by a continuous infusion of E. coli (1.667 μg/kg/hr) throughout the experiment. The control group received the same dose of isotonic saline injection and infusion. Approximately 30 minutes thereafter, a sample of blood (0.6 ml) was obtained from the femoral vein catheter prior to injection of the plasma marker. A volume between 0.5 ml and 1.0 ml of the indicator was injected {of approximately 1.0 mg/kg for both plasma markers} via the femoral vein catheter into the bloodstream. The catheter was then flushed clean with an equal volume of isotonic saline. […] As before, following the withdrawal of each sample, the catheter was flushed with an equal volume of isotonic saline. Samples were obtained at various time intervals over a 6 hour period, the majority were collected within the first hour after administration of the plasma marker. Blood samples were then centrifuged at approximately 2500 r.p.m for 10-15 minutes and plasma/serum withdrawn.

[2] = Volume of distribution (plasma volume) of FITC-Elohaes compared to Evans Blue labelled albumin in healthy rabbits; settings: both, rabbit, in vivo, 0.2 mg/ml
Description: All rabbits used were adults of either sex, weighing approximately 3 kg. Both ears of the rabbit were first anaesthetised by topical application of Elma cream about 30 minutes prior to commencement of the procedure. A small cut was made into the left ear vein, using a scalpel, to enable relatively simple blood sampling. A sample of blood (approximately 1.0 ml) was obtained from the cut ear vein and collected into tubes coated with anti-coagulant (EDTA). […] A mixing time of at least 5 minutes was allowed before blood sampling began. Blood samples (≈1.0 ml) were then withdrawn at various time intervals following injection, up to a maximum of 2 days. Most samples were collected within the first 3 hours and no more than 9 post-injection blood samples were taken from each rabbit. The blood samples were then centrifuged {Centaur 2} at 2300 r.p.m. for 10-15 minutes and the plasma withdrawn.
The minimisation procedure was obtained from the NAG library {Numerical Algorithms Group, Oxford; Routine E04FCF:NAGFLIB:1652/0: Mk7: December 1978}. This routine was called by a programme, written by the user and incorporated a subroutine with the appropriate mathematical equation. […]
Thus, the volume of distribution was calculated from the degree of dilution (El-Sayed et al., 1995).

[3] = endotoxic (E. coli) newborn piglets

Q: Which VD [1, 3] does the source give for `Cc1cc(-c2ccc(/N=N/c3ccc4c(S(=O)(=O)O)cc(S(=O)(=O)O)c(N)c4c3O)c(C)c2)ccc1/N=N/c1ccc2c(S(=O)(=O)O)cc(S(=O)(=O)O)c(N)c2c1O` [Evans Blue] here?
A: 0.1401 L/kg and 0.0917 L/kg and 0.1138 L/kg and 0.1129 L/kg and 0.0783 L/kg

Q: And the VD ([1]; healthy newborn piglets)?
A: 0.0851 L/kg and 0.0862 L/kg and 0.0835 L/kg and 0.0869 L/kg

Q: And the Vd [1, 3]?
A: 0.0983 L/kg

Q: And the Vd ([1]; healthy newborn piglets)?
A: 0.0896 L/kg

Q: What about the Vd [2] of the same compound?
A: 0.0531 L/kg
